Laboratory results published in patent publication US20230407243A1, “GENETIC PLATFORM TO INVESTIGATE THE FUNCTIONS OF BACTERIAL DRUG EFFLUX PUMPS” (priority 2022, published 2023).
Values after ≈ are worked out from the molar mass of the structure shown. Where two headings read alike, the source gives them in different places.

What was measured:
Assay type in all cases: cell-based, Escherichia coli
EKO-35 wcaC (pCA24N) = assay: MIC of strains harboring ASKA plasmids; details: 0.1 mM IPTG; for MIC: EKO-35 wcaC; for MIC, EKO-35 wcaC (pCA24N), Chlor +: 4 μg/mL chloramphenicol selection; for MIC, EKO-35 wcaC (pCA24N), Chlor −: no plasmid selection
EKO-35 gyrB (pCA24N) = assay: MIC of strains harboring ASKA plasmids; details: 0.1 mM IPTG; for MIC: EKO-35 gyrB; for MIC, EKO-35 gyrB (pCA24N), Chlor +: 4 μg/mL chloramphenicol selection; for MIC, EKO-35 gyrB (pCA24N), Chlor −: no plasmid selection
ΔtolC (empty pCA24N) = assay: microbe, parasite or virus in culture; details: 0.1 mM IPTG; for MIC: ΔtolC empty pCA24N; for MIC, ΔtolC (empty pCA24N), Chlor −: no plasmid selection; for MIC, ΔtolC (empty pCA24N), Chlor +: with chloramphenicol plasmid selection
EKO-35 (empty pCA24N) = assay: microbe, parasite or virus in culture; details: for MIC: EKO-35 empty pCA24N; for MIC / MIC, EKO-35 (empty pCA24N), Chlor + / MIC, EKO-35 (empty pCA24N), Chlor −: 0.1 mM IPTG; for MIC, EKO-35 (empty pCA24N), Chlor +: 4 μg/mL chloramphenicol selection; for MIC, EKO-35 (empty pCA24N), Chlor −: no plasmid selection
K-12 (empty pCA24N) = assay: MIC of strains harboring ASKA plasmids; details: 0.1 mM IPTG; for MIC: K-12 empty pCA24N; for MIC, K-12 (empty pCA24N), Chlor +: 25 μg/mL chloramphenicol selection; for MIC, K-12 (empty pCA24N), Chlor −: no plasmid selection
EKO-35 pitA (pCA24N) = assay: MIC of strains harboring ASKA plasmids; details: 0.1 mM IPTG; for MIC, EKO-35 pitA (pCA24N), Chlor −: no plasmid selection
EKO-35 tufA (pCA24N) = assay: MIC of strains harboring ASKA plasmids; details: 0.1 mM IPTG; for MIC: EKO-35 tufA; for MIC, EKO-35 tufA (pCA24N), Chlor +: 4 μg/mL chloramphenicol selection; for MIC, EKO-35 tufA (pCA24N), Chlor −: no plasmid selection
EKO-35-Pore = assay: Checkerboard synergy (FICI), porinated strain
In short: (§1)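 Read-out was OD600, the MIC being the lowest concentration without growth in a CLSI checkerboard run in MHB II. Each drug's MIC in combination was divided by its MIC alone and the two ratios summed as FICI. Cut-offs: <0.5 synergy, >0.5–1.0 additive, >1.0–2.0 indifferent, >2.0 antagonism.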

[1] = test system: EKO-35 porinated strain expressing acrB; assay: Checkerboard synergy (FICI), porinated strain; details: EKO-35 acrB Pore
In short: as §1

[2] = test system: EKO-35-Pore acrBD408A (functionally inactive AcrB variant); assay: Checkerboard synergy (FICI), porinated strain; details: EKO-35 acrBD408A Pore
In short: as §1

wild-type K-12-Pore = assay: Checkerboard synergy (FICI), porinated strain; details: K-12 Pore
In short: as §1

ΔtolC-Pore = details: ΔtolC Pore
In short: as §1

EKO-35 acrBD408A = details: EKO-35 acrBD408A
In short: as §1

EKO-35 = test system: EKO-35
In short: as §1

ΔtolC = details: ΔtolC
In short: as §1

[3] = Chlor + (4 μg/mL chloramphenicol)
[4] = antibiotic alone (PAβN checkerboard)
[5] = antibiotic in combination with PAβN

Compound: benzalkonium chloride
- MIC (EKO-35 wcaC (pCA24N); Chlor + (4 μg/mL)): 0.391 µg/mL
- MIC (EKO-35 wcaC (pCA24N); Chlor −): 0.781 µg/mL
- MIC (EKO-35 gyrB (pCA24N); Chlor + (4 μg/mL)): 0.781 µg/mL
- MIC (EKO-35 gyrB (pCA24N); Chlor −): 0.781 µg/mL
- MIC (ΔtolC (empty pCA24N); Chlor +): 0.781 µg/mL
- MIC (ΔtolC (empty pCA24N); Chlor −): 1.56 µg/mL
- MIC (EKO-35 (empty pCA24N); [3]): 0.781 µg/mL
- MIC (EKO-35 (empty pCA24N); Chlor −): 0.781 µg/mL
- MIC (K-12 (empty pCA24N); Chlor + (25 μg/mL chloramphenicol)): 25 µg/mL
- MIC (K-12 (empty pCA24N); Chlor −): 25 µg/mL
- MIC (EKO-35 pitA (pCA24N); EKO-35 pitA, Chlor −): 0.781 µg/mL
- MIC (EKO-35 tufA (pCA24N); Chlor + (4 μg/mL)): 0.781 µg/mL
- MIC (EKO-35 tufA (pCA24N); Chlor −): 0.781 µg/mL

Compound: Cn1cc(Br)c(-c2cccc(NC(=O)Nc3ccc(OC(F)(F)F)cc3)c2)n1 [compound 14]
- MIC, EKO-35 wcaC (pCA24N), Chlor + (EKO-35 wcaC (pCA24N)): >5 μg/mL
- MIC, EKO-35 wcaC (pCA24N), Chlor − (EKO-35 wcaC (pCA24N)): >5 μg/mL
- MIC, EKO-35 gyrB (pCA24N), Chlor + (EKO-35 gyrB (pCA24N)): >5 μg/mL
- MIC, EKO-35 gyrB (pCA24N), Chlor − (EKO-35 gyrB (pCA24N)): >5 μg/mL
- MIC, ΔtolC (empty pCA24N), Chlor − (ΔtolC (empty pCA24N)): 1.25 μg/mL
- MIC, ΔtolC (empty pCA24N), Chlor + (ΔtolC (empty pCA24N)): 1.25 μg/mL
- MIC, EKO-35 (empty pCA24N), Chlor + (EKO-35 (empty pCA24N)): >5 μg/mL
- MIC, EKO-35 (empty pCA24N), Chlor − (EKO-35 (empty pCA24N)): >5 μg/mL
- MIC, K-12 (empty pCA24N), Chlor + (K-12 (empty pCA24N)): >5 μg/mL
- MIC, K-12 (empty pCA24N), Chlor − (K-12 (empty pCA24N)): >5 μg/mL
- MIC, EKO-35 pitA (pCA24N), Chlor − (EKO-35 pitA (pCA24N)): >5 μg/mL
- MIC, EKO-35 tufA (pCA24N), Chlor + (EKO-35 tufA (pCA24N)): >5 μg/mL
- MIC, EKO-35 tufA (pCA24N), Chlor − (EKO-35 tufA (pCA24N)): >5 μg/mL

Compound: N#Cc1ccc(-c2c(NC(=O)C(Cl)Cl)oc(-c3cccs3)c2C#N)cc1 [compound 2]
- MIC, EKO-35 wcaC (pCA24N), Chlor + (EKO-35 wcaC (pCA24N)): >5 μg/mL
- MIC, EKO-35 wcaC (pCA24N), Chlor − (EKO-35 wcaC (pCA24N)): >5 μg/mL
- MIC, EKO-35 gyrB (pCA24N), Chlor + (EKO-35 gyrB (pCA24N)): >5 μg/mL
- MIC, EKO-35 gyrB (pCA24N), Chlor − (EKO-35 gyrB (pCA24N)): >5 μg/mL
- MIC, ΔtolC (empty pCA24N), Chlor − (ΔtolC (empty pCA24N)): 1.25 μg/mL
- MIC, ΔtolC (empty pCA24N), Chlor + (ΔtolC (empty pCA24N)): 1.25 μg/mL
- MIC, EKO-35 (empty pCA24N), Chlor + (EKO-35 (empty pCA24N)): >5 μg/mL
- MIC, EKO-35 (empty pCA24N), Chlor − (EKO-35 (empty pCA24N)): >5 μg/mL
- MIC, K-12 (empty pCA24N), Chlor + (K-12 (empty pCA24N)): >5 μg/mL
- MIC, K-12 (empty pCA24N), Chlor − (K-12 (empty pCA24N)): >5 μg/mL
- MIC, EKO-35 pitA (pCA24N), Chlor − (EKO-35 pitA (pCA24N)): >5 μg/mL
- MIC, EKO-35 tufA (pCA24N), Chlor + (EKO-35 tufA (pCA24N)): >5 μg/mL
- MIC, EKO-35 tufA (pCA24N), Chlor − (EKO-35 tufA (pCA24N)): >5 μg/mL

Compound: CO[C@@H]1[C@@H](OC(N)=O)[C@@H](O)[C@H](Oc2ccc3c(O)c(NC(=O)c4ccc(O)c(CC=C(C)C)c4)c(=O)oc3c2C)OC1(C)C [novobiocin]
- MIC (EKO-35 wcaC (pCA24N); Chlor + (4 μg/mL)): 1.56 µg/mL
- Effect (EKO-35-Pore; EKO-35 Pore, PAβN + antibiotic): Additive
- FICI (EKO-35-Pore; EKO-35 Pore, PAβN + antibiotic): 0.630
- MICb Alone (EKO-35-Pore; EKO-35 Pore, antibiotic alone (PAβN checkerboard)): 1 µg/mL
- MICb Combined (EKO-35-Pore; EKO-35 Pore, antibiotic in combination with PAβN): 0.13 µg/mL
- interaction of PAβN in combination with the labelled antibiotic (FICI) (EKO-35-Pore; porinated efflux-deficient strains): no longer synergistic
- Effect ([1]; PAβN + antibiotic): Synergistic
- FICI ([1]; PAβN + antibiotic): 0.094
- MICb Alone [1, 4]: 512 µg/mL
- MICb Combined [1, 5]: 16 µg/mL
- Effect ([2]; PAβN + antibiotic): Additive
- FICI ([2]; PAβN + antibiotic): 0.750
- MICb Alone [2, 4]: 1 µg/mL
- MICb Combined [2, 5]: 0.25 µg/mL
- Effect (wild-type K-12-Pore; PAβN + antibiotic): Additive
- FICI (wild-type K-12-Pore; PAβN + antibiotic): 0.508
- MICb Alone (wild-type K-12-Pore; [4]): 16 µg/mL
- MICb Combined (wild-type K-12-Pore; [5]): 8 µg/mL
- Effect (ΔtolC-Pore; PAβN + antibiotic): Additive
- FICI (ΔtolC-Pore; PAβN + antibiotic): 0.740
- MICb Alone (ΔtolC-Pore; [4]): 0.25 µg/mL
- MICb Combined (ΔtolC-Pore; [5]): 0.06 µg/mL
- Effect (EKO-35 acrBD408A; PAβN + antibiotic): Synergistic
- FICI (EKO-35 acrBD408A; PAβN + antibiotic): 0.375
- MICb Alone (EKO-35 acrBD408A; [4]): 8 µg/mL
- MICb Combined (EKO-35 acrBD408A; [5]): 2 µg/mL
- Effect (EKO-35; EKO-35, PAβN + antibiotic): Synergistic
- FICI (EKO-35; EKO-35, PAβN + antibiotic): 0.375
- MICb Alone (EKO-35; EKO-35, antibiotic alone (PAβN checkerboard)): 4 µg/mL
- MICb Combined (EKO-35; EKO-35, antibiotic in combination with PAβN): 1 µg/mL
- interaction of PAβN in combination with the labelled antibiotic (FICI) (EKO-35; efflux-deficient strains EKO-35, EKO-35 acrBD408A, ΔtolC): synergized
- Effect (ΔtolC; PAβN + antibiotic): Synergistic
- FICI (ΔtolC; PAβN + antibiotic): 0.500
- MICb Alone (ΔtolC; [4]): 2 µg/mL
- MICb Combined (ΔtolC; [5]): 0.5 µg/mL
- effect of gyrB overexpression on resistance of EKO-35 (EKO-35 gyrB (pCA24N); ASKA plasmid): increased novobiocin resistance
- MIC (EKO-35 gyrB (pCA24N); Escherichia coli, Chlor + (4 μg/mL), read-out: MIC): 25 µg/mL
- MIC (ΔtolC (empty pCA24N); Escherichia coli, Chlor +): 1.56 µg/mL (≈ 2.55 µM)
- MIC (ΔtolC (empty pCA24N); Escherichia coli, Chlor −): 3.13 µg/mL (≈ 5.11 µM)
- MIC (EKO-35 (empty pCA24N); [3]): 3.13 µg/mL
- MIC (EKO-35 (empty pCA24N); Escherichia coli, Chlor −, read-out: MIC): 3.13 µg/mL (≈ 5.11 µM)
- fold difference in susceptibility between EKO-35 and ΔtolC (EKO-35 (empty pCA24N); while profiling the ASKA EKO-35 strains): 2 fold
- MIC (K-12 (empty pCA24N); Escherichia coli, Chlor + (25 μg/mL chloramphenicol), read-out: MIC): 200 µg/mL

Compound: O=C(Nc1ccccc1C(=O)Nc1nnc(C(F)(F)F)s1)c1ccccc1Cl [compound 19]
- MIC, EKO-35 wcaC (pCA24N), Chlor + (EKO-35 wcaC (pCA24N)): >5 μg/mL
- MIC, EKO-35 wcaC (pCA24N), Chlor − (EKO-35 wcaC (pCA24N)): >5 μg/mL
- MIC, EKO-35 gyrB (pCA24N), Chlor + (EKO-35 gyrB (pCA24N)): >5 μg/mL
- MIC, EKO-35 gyrB (pCA24N), Chlor − (EKO-35 gyrB (pCA24N)): >5 μg/mL
- MIC, ΔtolC (empty pCA24N), Chlor − (ΔtolC (empty pCA24N)): 2.5 μg/mL
- MIC, ΔtolC (empty pCA24N), Chlor + (ΔtolC (empty pCA24N)): 2.5 μg/mL
- MIC, EKO-35 (empty pCA24N), Chlor + (EKO-35 (empty pCA24N)): >5 μg/mL
- MIC, EKO-35 (empty pCA24N), Chlor − (EKO-35 (empty pCA24N)): >5 μg/mL
- MIC, K-12 (empty pCA24N), Chlor + (K-12 (empty pCA24N)): >5 μg/mL
- MIC, K-12 (empty pCA24N), Chlor − (K-12 (empty pCA24N)): >5 μg/mL
- MIC, EKO-35 pitA (pCA24N), Chlor − (EKO-35 pitA (pCA24N)): >5 μg/mL
- MIC, EKO-35 tufA (pCA24N), Chlor + (EKO-35 tufA (pCA24N)): >5 μg/mL
- MIC, EKO-35 tufA (pCA24N), Chlor − (EKO-35 tufA (pCA24N)): >5 μg/mL
